From US20240142438A1, “MULTI-ORGAN MODEL” (CELLARTGEN INC., priority 2021, published 2024)
“Also recorded” adds a separate entry of the source.

Experiments:
liver organoid = test: Candidate drugs on liver organoid in multi-organ NASH organoid model (chip); type: cell-based, mouse; settings: oleic acid 500 μM + drug 50 μM, 3 days; for low-density cholesterol (LDL) levels in the liver organoids: cholesterol analysis of disrupted organoids, vs No Treatment (NT)
Description: (§1) A multi-organ NASH model was constructed by applying not only conventional Matrigel, a commercially available culture scaffold, but also a decellularized tissue-derived hydrogel scaffold to culture of each organoid in a multi-organ device. Liver and pancreas organoids were obtained by extracting adult stem cells from a mouse tissue, encapsulated in a decellularized liver tissue-derived matrix (6 mg/ml) and a decellularized pancreas tissue-derived matrix (4 mg/ml), respectively, at a cell density of 70,000 cells/30 μL gel, and cultured. An intestinal organoid was obtained by extracting intestinal crypts from a mouse intestinal tissue and encapsulated in a decellularized intestinal tissue-derived matrix (2 mg/ml) at a cell density of 800 crypts/30 μL gel, and cultured. […] The cardiac organoid was cultured on a hydrogel (20 organoids/70 μL gel bed) prepared by crosslinking of a decellularized cardiac tissue-derived matrix (5 mg/ml) in the form of a 70 μL gel bed at the bottom of the device. The decellularized matrix for culturing each organoid was applied at the optimal concentration for differentiation of each organoid as determined through previous research.
Obeticholic acid (OCA), a semi-synthetic bile acid analog, is an agonist for FXR (farnesoid X receptor) to regulate bile acid metabolism, inflammation, fibrosis, and sugar/lipid metabolism. […] Elafibranor (Ela), a dual agonist for PPARα/δ, is a drug that inhibits fatty acid biosynthesis and glucose biosynthesis in the liver and has been used as a drug for cardiometabolic diseases. Liraglutide (Lira), an agonist for glucagon-like peptide-1 (GLP-1), is a drug that has been used to treat diabetes.

intestinal organoid = test: Candidate drugs on intestinal organoid in multi-organ NASH organoid model (chip); type: cell-based, mouse; settings: oleic acid 500 μM + drug 50 μM, 3 days in liver chamber
Description: as §1

cardiac organoid = test: Candidate drugs on cardiac organoid in multi-organ NASH organoid model (chip); type: cell-based, mouse; settings: oleic acid 500 μM + drug 50 μM, 3 days in liver chamber
Description: as §1

pancreas organoid = test: Candidate drugs on pancreas organoid in multi-organ NASH organoid model (chip); type: cell-based, mouse; settings: oleic acid 500 μM + drug 50 μM, 3 days in liver chamber
Description: as §1

[1] = test system: human iPSC-derived liver organoids; test: Candidate drugs on hiPSC-derived liver organoids in multi-organ NASH model; type: cell-based; settings: oleic acid 500 μM + drug 50 μM, 3 days
Description: Human iPSC-derived liver organoids were differentiated into hepatic endoderm cells through endoderm, and then a total of 500,000 cells including the hepatic endoderm cells, vascular endothelial cells (HUVEC) and mesenchymal stem cells (hMSC) at a ratio of 10:7:2 were mixed in 10 μL of culture medium. The mixture was coated onto 10 μL of a decellularized liver tissue-derived matrix (LEM) to induce the formation of three-dimensional organoids. […] Human iPSC-derived pancreas organoids were differentiated into beta cells through endoderm, gut endoderm, pancreatic endoderm, and pancreatic progenitor cells, and then a total of 500,000 cells including the beta cells, vascular endothelial cells (HUVEC) and mesenchymal stem cells (hMSC) at a ratio of 10:7:2 were mixed in 10 μL of culture medium. The mixture was coated onto 10 μL of a decellularized pancreas tissue-derived matrix (PEM) to induce the formation of three-dimensional organoids. […] Each organoids cultured in a decellularized tissue-derived matrix was seeded into a multi-organ microfluidic device and then cultured in a normal culture medium suitable for each organ for 2 days. Then, the NASH group was treated with oleic acid (500 μM) and cultured for 3 days only in the chamber in which the liver organoid was cultured, and the groups treated with the respective drugs were treated with oleic acid (500 μM) and the respective drugs (50 μM) for 3 days in the chamber in which the liver organoid was cultured. A multi-organ device in which a normal liver organoid (Normal) not treated with the fatty acid was used as a control group.

[2] = test system: human iPSC-derived pancreas organoids; settings: immunofluorescence staining; oleic acid 500 μM + drug 50 μM, 3 days in liver chamber
Description: Human iPSC-derived liver organoids were differentiated into hepatic endoderm cells through endoderm, and then a total of 500,000 cells including the hepatic endoderm cells, vascular endothelial cells (HUVEC) and mesenchymal stem cells (hMSC) at a ratio of 10:7:2 were mixed in 10 μL of culture medium. The mixture was coated onto 10 μL of a decellularized liver tissue-derived matrix (LEM) to induce the formation of three-dimensional organoids. […] Human iPSC-derived pancreas organoids were differentiated into beta cells through endoderm, gut endoderm, pancreatic endoderm, and pancreatic progenitor cells, and then a total of 500,000 cells including the beta cells, vascular endothelial cells (HUVEC) and mesenchymal stem cells (hMSC) at a ratio of 10:7:2 were mixed in 10 μL of culture medium. The mixture was coated onto 10 μL of a decellularized pancreas tissue-derived matrix (PEM) to induce the formation of three-dimensional organoids. […] Each organoids cultured in a decellularized tissue-derived matrix was seeded into a multi-organ microfluidic device and then cultured in a normal culture medium suitable for each organ for 2 days. […]

[3] = test system: human iPSC-derived intestinal organoids; settings: immunofluorescence staining, oleic acid 500 μM + drug 50 μM, 3 days in liver chamber
Description: (§2) Human iPSC-derived intestinal organoids were differentiated into hindgut spheroids through endoderm, encapsulated in Matrigel, and matured for about 20 to 30 days. The mature intestinal organoids were extracted from Matrigel, re-encapsulated in a decellularized intestinal tissue-derived matrix
(§3) (IEM), and further cultured. […] Human iPSC-derived cardiac organoids were induced to mature into cardiomyocytes through mesenchyma and cardiac progenitor cells, and then 400,000 cells were mixed in 20 μL of a decellularized heart tissue-derived matrix (HEM) to prepare three-dimensional organoids. […] Each organoids cultured in a decellularized tissue-derived matrix was seeded into a multi-organ microfluidic device and then cultured in a normal culture medium suitable for each organ for 2 days. Then, the NASH group was treated with oleic acid (500 μM) and cultured for 3 days only in the chamber in which the liver organoid was cultured, and the groups treated with the respective drugs were treated with oleic acid (500 μM) and the respective drugs (50 μM) for 3 days in the chamber in which the liver organoid was cultured. A multi-organ device in which a normal liver organoid (Normal) not treated with the fatty acid was used as a control group.

[4] = test system: human iPSC-derived cardiac organoids; settings: immunofluorescence staining; oleic acid 500 μM + drug 50 μM, 3 days in liver chamber
Description: as §2, §3

CSc1ccc(C(=O)/C=C/c2cc(C)c(OC(C)(C)C(=O)O)c(C)c2)cc1 [Ela, Elafibranor]
low-density cholesterol (LDL) levels in the liver organoids (liver organoid): an improvement in LDL levels compared to the No Treatment (NT) group; also recorded: a greater improvement than Lira
expression level of α-SMA, a fibrosis marker (fibrosis) (liver organoid; immunofluorescence staining): improved the most
COL1A1 expression (liver organoid; quantitative PCR): remarkably effective in reducing the increased expression of COL1A1
expression levels of HNF4A and ALB, hepatic differentiation markers (liver organoid; quantitative PCR): no significant effect on hepatic differentiation and functional recovery
expression of α-SMA and COL1A1, fibrosis and drug toxicity-related markers (liver organoid; quantitative PCR): improved
expression level of OCLN, a tight junction marker of the gut barrier (intestinal organoid; quantitative PCR): not improved
expression levels of CHGA and MUC2, intestinal differentiation markers (intestinal organoid; quantitative PCR): not much recovered; also recorded: lower in the Ela-treated group than in No Treatment (NT) group
expression of CTNT and F-actin, myocardial differentiation and actin-filament markers (cardiac organoid; immunostaining): recovered to some extent
expression level of ACTC1, a cardiac differentiation marker (cardiac organoid; quantitative PCR): recovered

O=C1[C@H](CC[C@H](O)c2ccc(F)cc2)[C@@H](c2ccc(O)cc2)N1c1ccc(F)cc1 [Eze, Ezetimibe]
low-density cholesterol (LDL) levels in the liver organoids (liver organoid): significantly lower than those in the No Treatment (NT) group
expression levels of HNF4A and ALB, hepatic differentiation markers (liver organoid; quantitative PCR): recovered to some extent
expression of α-SMA and COL1A1, fibrosis and drug toxicity-related markers (liver organoid; quantitative PCR): improved
expression of NPC1L1 (intestinal organoid; immunostaining): the most significant decrease in expression
expression level of OCLN, a tight junction marker of the gut barrier (intestinal organoid; quantitative PCR): recovered to some extent
expression levels of CHGA and MUC2, intestinal differentiation markers (intestinal organoid; quantitative PCR): not much recovered
gene expression of FGF15 in the intestinal organoid (intestinal organoid; quantitative PCR): recovered to some extent
expression level of KRT19, a pancreatic exocrine cell marker (pancreas organoid; quantitative PCR): recovered to some extent
expression level of PDX1, an endocrine cell marker (pancreas organoid; quantitative PCR): not recovered
expression level of ACTC1, a cardiac differentiation marker (cardiac organoid; quantitative PCR): limitations in improving cardiac differentiation/functionality
expression level of FGF19 ([1]; immunofluorescence staining): recovered only in the OCA-treated group
expression level of α-SMA, a fibrosis and drug toxicity-related marker ([1]; immunofluorescence staining): decreased to some extent
fatty acid accumulation (BODIPY staining) [1]: partially decreased
structure of the liver organoids ([1]; optical microscopy): some of the cells in the outer part died
expression levels of insulin and NKX6.1, pancreatic differentiation markers [2]: less significantly recovered
expression level of NPC1L1 [3]: decreased
expression level of the differentiation marker, MUC2 ([3]; vs No Treatment group): recovered to some extent
expression levels of CTNT and F-actin, myocardial differentiation and actin-filament markers [4]: recovered to some extent

CCCCCCCCCCCCCCCC(=O)N[C@@H](CCC(=O)NCCCC[C@H](NC(=O)[C@H](C)NC(=O)[C@H](C)NC(=O)[C@H](CCC(N)=O)NC(=O)CNC(=O)[C@H](CCC(=O)O)NC(=O)[C@H](CC(C)C)NC(=O)[C@H](Cc1ccc(O)cc1)NC(=O)[C@H](CO)NC(=O)[C@H](CO)NC(=O)[C@@H](NC(=O)[C@H](CC(=O)O)NC(=O)[C@H](CO)NC(=O)[C@@H](NC(=O)[C@H](Cc1ccccc1)NC(=O)[C@@H](NC(=O)CNC(=O)[C@H](CCC(=O)O)NC(=O)[C@H](C)NC(=O)[C@@H](N)Cc1cnc[nH]1)[C@@H](C)O)[C@@H](C)O)C(C)C)C(=O)N[C@@H](CCC(=O)O)C(=O)N[C@@H](Cc1ccccc1)C(=O)N[C@H](C(=O)N[C@@H](C)C(=O)N[C@@H](Cc1c[nH]c2ccccc12)C(=O)N[C@@H](CC(C)C)C(=O)N[C@H](C(=O)N[C@@H](CCCNC(=N)N)C(=O)NCC(=O)N[C@@H](CCCNC(=N)N)C(=O)NCC(=O)O)C(C)C)[C@@H](C)CC)C(=O)O [Lira, Liraglutide]
gut barrier and budding of the intestinal organoid (intestinal organoid; optical microscopy): the gut barrier was maintained to some extent but organoid budding hardly occurred
epithelial lumen of the pancreas organoids (pancreas organoid; optical microscopy): increased in thickness, showing the pattern of early fibrosis
expression level of α-SMA, a fibrosis and drug toxicity-related marker (pancreas organoid; quantitative PCR): pancreatitis and fibrosis were reduced
expression level of α-SMA, a fibrosis and drug toxicity-related marker (cardiac organoid; immunostaining): fibrosis was not improved
shape of the cardiac organoids (cardiac organoid; optical microscopy): some cells inside the organoids died, inducing severe cardiotoxicity
expression level of α-SMA, a fibrosis and drug toxicity-related marker (fibrosis) (cardiac organoid; quantitative PCR): fibrosis tended to worsen
